# Experimental data as given in ChEMBL document CHEMBL5338804 (J Med Chem, 2023).
# Key:
# [1] = target: Mitogen-activated protein kinase 14 (Homo sapiens, UniProt Q16539); assay: Inhibition of MAPK p38-alpha (unknown origin)
# [2] = target: MAP kinase-activated protein kinase 2 (Homo sapiens, UniProt P49137); assay: Inhibition of MK2 (unknown origin)
# [3] = target: Glycogen synthase kinase-3 beta (Homo sapiens, UniProt P49841, H355L); assay: Displacement of FL-KRREILSRRP[ps]ERYR-NH2 from human recombinant N-terminal His6-tagged GSK-3-beta (14 to 306 residues) H355L mutant expressed in baculovirus-infected Sf21 cells incubated for 20 hrs by fluorescence based analysis
# Sequence of Glycogen synthase kinase-3 beta (P49841 whole entry, looked up, stated change not applied, the tested form may be a part): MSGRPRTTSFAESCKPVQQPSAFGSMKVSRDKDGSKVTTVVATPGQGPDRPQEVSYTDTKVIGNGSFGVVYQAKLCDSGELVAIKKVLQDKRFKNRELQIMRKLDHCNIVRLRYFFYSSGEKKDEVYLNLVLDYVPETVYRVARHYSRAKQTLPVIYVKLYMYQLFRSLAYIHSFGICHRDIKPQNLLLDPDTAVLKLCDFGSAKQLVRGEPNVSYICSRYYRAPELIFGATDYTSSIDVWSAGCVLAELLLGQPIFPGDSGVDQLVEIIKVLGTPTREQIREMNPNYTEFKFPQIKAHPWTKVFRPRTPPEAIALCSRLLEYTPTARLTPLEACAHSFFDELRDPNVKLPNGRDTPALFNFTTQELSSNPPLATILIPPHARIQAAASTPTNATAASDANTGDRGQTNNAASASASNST
# [4] = target: Glycogen synthase kinase-3 alpha (Homo sapiens, UniProt P49840); assay: Displacement of FL-KRREILSRRP[ps]ERYR-NH2 from human recombinant full length GST-tagged GSK-3-alpha expressed in insect cells incubated for 20 hrs by fluorescence based analysis; set-up: species or system Insect cell
# [5] = target: Glycogen synthase kinase-3 (Homo sapiens, UniProt P49840+P49841); assay: Inhibition of GSK-3 in human U2OS cells transfected with beta-catenin GFP and 4R1N tau plasmid assessed as inhibition of Tau phosphorylation at Ser396 residues by high-content imaging assay; type: cell-based
# [6] = Metabolic stability in human liver microsomes assessed as parent compound remaining at 0.5 uM measured after 10 mins in presence of NADPH by LC-MS/MS analysis; type: ADME, Microsome; settings: read-out: Stability
# [7] = Metabolic stability in rat liver microsomes assessed as parent compound remaining at 0.5 uM measured after 10 mins in presence of NADPH by LC-MS/MS analysis; type: ADME, Microsome; settings: read-out: Stability
# [8] = Metabolic stability in mouse liver microsomes assessed as parent compound remaining at 0.5 uM measured after 10 mins in presence of NADPH by LC-MS/MS analysis; type: ADME, Microsome; settings: read-out: Stability
# [9] = target: AP2-associated protein kinase 1 (Homo sapiens, UniProt Q2M2I8); assay: Inhibition of AAK1 (unknown origin)
# [10] = target: Aurora kinase B (Homo sapiens, UniProt Q96GD4); assay: Inhibition of Aurora kinase B (unknown origin)
# [11] = target: Tyrosine-protein kinase BTK (Homo sapiens, UniProt Q06187); assay: Inhibition of BTK (unknown origin)
# [12] = target: Casein kinase II subunit alpha (Homo sapiens, UniProt P68400); assay: Inhibition of CK2A1 (unknown origin)
# [13] = target: Casein kinase II subunit alpha' (Homo sapiens, UniProt P19784); assay: Inhibition of CK2A2 (unknown origin)
# [14] = target: Mast/stem cell growth factor receptor Kit (Homo sapiens, UniProt P10721); assay: Inhibition of c-Kit (unknown origin)
# Sequence of Mast/stem cell growth factor receptor Kit (P10721 whole entry): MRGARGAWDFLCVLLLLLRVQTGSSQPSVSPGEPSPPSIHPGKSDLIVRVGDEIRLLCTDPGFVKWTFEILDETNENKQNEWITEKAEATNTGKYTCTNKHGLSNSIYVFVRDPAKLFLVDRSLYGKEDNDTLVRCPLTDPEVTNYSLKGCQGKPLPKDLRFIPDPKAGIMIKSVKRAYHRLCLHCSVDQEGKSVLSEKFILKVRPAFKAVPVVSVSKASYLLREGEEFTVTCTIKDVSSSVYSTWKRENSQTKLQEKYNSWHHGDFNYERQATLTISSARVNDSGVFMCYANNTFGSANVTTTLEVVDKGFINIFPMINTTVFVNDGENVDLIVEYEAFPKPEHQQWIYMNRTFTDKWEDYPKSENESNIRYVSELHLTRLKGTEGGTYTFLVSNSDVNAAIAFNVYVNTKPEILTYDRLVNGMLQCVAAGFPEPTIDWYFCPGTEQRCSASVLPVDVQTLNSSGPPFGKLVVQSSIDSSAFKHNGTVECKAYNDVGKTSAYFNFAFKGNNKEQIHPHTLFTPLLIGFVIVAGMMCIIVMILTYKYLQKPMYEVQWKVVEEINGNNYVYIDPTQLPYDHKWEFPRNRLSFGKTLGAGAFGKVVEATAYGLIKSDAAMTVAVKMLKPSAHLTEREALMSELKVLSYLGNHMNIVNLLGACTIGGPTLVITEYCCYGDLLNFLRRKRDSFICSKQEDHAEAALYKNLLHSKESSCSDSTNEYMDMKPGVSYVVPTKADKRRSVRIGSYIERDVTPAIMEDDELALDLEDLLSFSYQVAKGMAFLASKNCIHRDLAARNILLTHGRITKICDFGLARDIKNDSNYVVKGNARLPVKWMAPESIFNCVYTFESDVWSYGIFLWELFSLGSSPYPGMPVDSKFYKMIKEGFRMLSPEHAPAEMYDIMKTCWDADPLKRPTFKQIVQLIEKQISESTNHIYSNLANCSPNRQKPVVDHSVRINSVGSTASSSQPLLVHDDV
# [15] = target: Interleukin-1 receptor-associated kinase 1 (Homo sapiens, UniProt P51617); assay: Inhibition of IRAK1 (unknown origin)
# [16] = target: Interleukin-1 receptor-associated kinase 4 (Homo sapiens, UniProt Q9NWZ3); assay: Inhibition of IRAK4 (unknown origin)
# [17] = target: Tyrosine-protein kinase JAK1 (Homo sapiens, UniProt P23458); assay: Inhibition of JAK1 (unknown origin)
# Sequence of Tyrosine-protein kinase JAK1 (P23458 whole entry): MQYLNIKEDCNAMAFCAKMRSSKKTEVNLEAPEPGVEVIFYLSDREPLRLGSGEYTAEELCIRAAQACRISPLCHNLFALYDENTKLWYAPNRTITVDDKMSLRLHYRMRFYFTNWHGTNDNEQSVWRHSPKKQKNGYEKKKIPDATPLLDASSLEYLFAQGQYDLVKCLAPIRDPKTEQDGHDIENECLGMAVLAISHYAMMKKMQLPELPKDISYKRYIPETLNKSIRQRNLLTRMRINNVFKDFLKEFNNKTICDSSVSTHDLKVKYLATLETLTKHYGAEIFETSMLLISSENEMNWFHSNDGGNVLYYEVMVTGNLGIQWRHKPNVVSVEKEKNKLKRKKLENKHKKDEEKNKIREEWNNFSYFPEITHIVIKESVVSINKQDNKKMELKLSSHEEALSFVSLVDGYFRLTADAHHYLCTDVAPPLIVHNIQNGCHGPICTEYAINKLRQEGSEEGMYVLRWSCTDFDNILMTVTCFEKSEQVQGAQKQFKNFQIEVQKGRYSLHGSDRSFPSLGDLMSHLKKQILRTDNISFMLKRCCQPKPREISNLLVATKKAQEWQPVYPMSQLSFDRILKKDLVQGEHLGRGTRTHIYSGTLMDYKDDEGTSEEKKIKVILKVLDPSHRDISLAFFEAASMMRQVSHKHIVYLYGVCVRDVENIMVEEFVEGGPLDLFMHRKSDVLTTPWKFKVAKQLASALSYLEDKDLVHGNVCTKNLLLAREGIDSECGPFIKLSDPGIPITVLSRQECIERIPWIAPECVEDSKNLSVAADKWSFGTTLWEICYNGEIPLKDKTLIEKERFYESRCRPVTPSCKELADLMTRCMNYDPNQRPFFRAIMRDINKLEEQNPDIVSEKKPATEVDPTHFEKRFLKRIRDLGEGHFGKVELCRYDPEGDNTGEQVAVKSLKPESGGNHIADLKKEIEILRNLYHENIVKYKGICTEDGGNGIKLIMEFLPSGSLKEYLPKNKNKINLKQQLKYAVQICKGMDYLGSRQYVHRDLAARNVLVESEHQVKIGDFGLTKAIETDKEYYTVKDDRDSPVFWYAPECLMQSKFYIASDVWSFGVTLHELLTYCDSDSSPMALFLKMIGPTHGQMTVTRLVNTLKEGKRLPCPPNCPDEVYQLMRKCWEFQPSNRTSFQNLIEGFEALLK
# [18] = target: Tyrosine-protein kinase JAK2 (Homo sapiens, UniProt O60674); assay: Inhibition of JAK2 (unknown origin)
# Sequence of Tyrosine-protein kinase JAK2 (O60674 whole entry): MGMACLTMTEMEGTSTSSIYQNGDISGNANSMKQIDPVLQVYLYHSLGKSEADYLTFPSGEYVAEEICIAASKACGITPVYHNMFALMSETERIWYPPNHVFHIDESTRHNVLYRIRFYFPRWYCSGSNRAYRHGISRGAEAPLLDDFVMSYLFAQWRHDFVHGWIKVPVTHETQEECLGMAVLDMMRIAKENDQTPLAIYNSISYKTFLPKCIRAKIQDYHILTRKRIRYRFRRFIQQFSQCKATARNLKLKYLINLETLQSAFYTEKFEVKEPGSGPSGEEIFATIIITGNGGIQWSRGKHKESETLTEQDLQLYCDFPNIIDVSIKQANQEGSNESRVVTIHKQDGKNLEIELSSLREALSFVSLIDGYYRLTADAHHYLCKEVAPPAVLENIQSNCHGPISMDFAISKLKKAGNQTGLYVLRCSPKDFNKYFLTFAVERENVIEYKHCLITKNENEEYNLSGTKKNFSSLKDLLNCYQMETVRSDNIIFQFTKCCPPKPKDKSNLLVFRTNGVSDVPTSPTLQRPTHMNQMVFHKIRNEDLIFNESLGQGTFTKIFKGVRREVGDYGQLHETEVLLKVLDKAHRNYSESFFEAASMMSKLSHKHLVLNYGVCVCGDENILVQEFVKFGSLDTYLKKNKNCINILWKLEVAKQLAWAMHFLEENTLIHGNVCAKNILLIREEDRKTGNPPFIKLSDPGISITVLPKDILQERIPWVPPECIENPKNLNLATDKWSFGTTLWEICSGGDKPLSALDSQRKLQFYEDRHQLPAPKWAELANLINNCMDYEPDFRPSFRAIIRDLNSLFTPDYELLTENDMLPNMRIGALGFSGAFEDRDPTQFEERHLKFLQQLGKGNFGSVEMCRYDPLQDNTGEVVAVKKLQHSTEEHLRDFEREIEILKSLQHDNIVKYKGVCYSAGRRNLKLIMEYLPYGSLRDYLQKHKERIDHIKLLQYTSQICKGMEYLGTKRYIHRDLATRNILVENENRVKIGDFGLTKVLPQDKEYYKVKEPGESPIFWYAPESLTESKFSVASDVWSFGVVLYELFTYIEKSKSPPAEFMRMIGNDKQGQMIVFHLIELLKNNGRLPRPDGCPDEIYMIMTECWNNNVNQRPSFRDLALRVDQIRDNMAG
# [19] = target: Tyrosine-protein kinase Lck (Homo sapiens, UniProt P06239); assay: Inhibition of LCK (unknown origin)
# [20] = target: Platelet-derived growth factor receptor beta (Homo sapiens, UniProt P09619); assay: Inhibition of PDGFR-beta (unknown origin)
# [21] = target: Protein kinase C theta type (Homo sapiens, UniProt Q04759); assay: Inhibition of PKC theta (unknown origin)
# [22] = target: Ribosomal protein S6 kinase alpha-1 (Homo sapiens, UniProt Q15418); assay: Inhibition of RSK1 (unknown origin)
# [23] = target: Tyrosine-protein kinase SYK (Homo sapiens, UniProt P43405); assay: Inhibition of SYK (unknown origin)
# [24] = target: Non-receptor tyrosine-protein kinase TYK2 (Homo sapiens, UniProt P29597); assay: Inhibition of TYK2 (unknown origin)
# [25] = target: Cyclin-dependent kinase 2 (Homo sapiens, UniProt P24941); assay: Inhibition of CDK2 (unknown origin)
# [26] = target: Cyclin-dependent kinase 5 (Homo sapiens, UniProt Q00535); assay: Inhibition of CDK5 (unknown origin)
# [27] = target: Serine/threonine-protein kinase pim-1 (Homo sapiens, UniProt P11309); assay: Inhibition of PIM1 (unknown origin)
# [28] = Permeability of the compound at 100 uM incubated for 4 hrs at pH 5.5 by PAMPA assay; type: ADME; settings: read-out: permeability
# [29] = Permeability of the compound from apical to basolateral side in human Caco-2 cells at 3 uM incubated for 2 hrs by LC-MS/MS analysis; type: ADME, cell-based; settings: read-out: permeability
# [30] = Permeability of the compound from basolateral to apical side in human Caco-2 cells at 3 uM incubated for 2 hrs by LC-MS/MS analysis; type: ADME, cell-based; settings: read-out: permeability
# [31] = Protein binding in human plasma assessed as unbound fraction at 10 uM incubated for 5 hrs by equilibrium dialysis method; type: ADME, cell-free
# [32] = Protein binding in rat plasma assessed as unbound fraction at 10 uM incubated for 5 hrs by equilibrium dialysis method; type: ADME, cell-free
# [33] = Protein binding in mouse plasma assessed as unbound fraction at 10 uM incubated for 5 hrs by equilibrium dialysis method; type: ADME, cell-free
# [34] = Protein binding in mouse brain assessed as unbound fraction at 1 uM incubated for 4 hrs by LC-MS analysis; type: ADME, tissue-based
# [35] = Thermodynamic aqueous solubility of the compound at pH 1 incubated for 18 to 24 hrs by HPLC-UV analysis; type: physicochemical; settings: aqueous medium, time 18-24 hrs, read-out: Therm_solubility
# [36] = Thermodynamic aqueous solubility of the compound at pH 7.4 incubated for 18 to 24 hrs by HPLC-UV analysis; type: physicochemical; settings: aqueous medium, time 18-24 hrs, read-out: Therm_solubility
# [37] = Clearance in C57BL/6 mouse at 2 mg/kg, iv by LC-MS/MS analysis; type: ADME, organism-based; settings: in vivo
# [38] = Volume of distribution at steady state in C57BL/6 mouse at 2 mg/kg, iv by LC-MS/MS analysis; type: ADME, organism-based; settings: in vivo, read-out: Vdss
# [39] = MRT in C57BL/6 mouse at 2 mg/kg, iv by LC-MS/MS analysis; type: ADME, organism-based; settings: in vivo
# [40] = Half life in C57BL/6 mouse at 2 mg/kg, iv by LC-MS/MS analysis; type: ADME, organism-based; settings: in vivo
# [41] = AUC (total) in C57BL/6 mouse at 10 mg/kg, po by LC-MS/MS analysis; type: ADME, organism-based; set-up: dose 10 mg/kg, route po; settings: in vivo
# [42] = Cmax in C57BL/6 mouse at 10 mg/kg, po by LC-MS/MS analysis; type: ADME, organism-based; set-up: dose 10 mg/kg, route po; settings: in vivo
# [43] = Oral bioavailability in C57BL/6 mouse at 10 mg/kg by LC-MS/MS analysis; type: ADME, organism-based; settings: in vivo
# [44] = Plasma concentration in LaFerla 3x transgenic Alzheimer's disease C57BL/6 mouse model at 10 mg/kg, po measured after 5 hrs; type: ADME, organism-based
# [45] = Drug uptake in brain of LaFerla 3x transgenic Alzheimer's disease C57BL/6 mouse model at 10 mg/kg, po measured after 5 hrs; type: ADME, organism-based; settings: read-out: Drug uptake
# [46] = Ratio of drug concentration in brain to plasma in LaFerla 3x transgenic Alzheimer's disease C57BL/6 mouse model at 10 mg/kg, po measured after 5 hrs; type: ADME, organism-based; settings: read-out: BPR
# [47] = Ratio of unbound drug concentration in mouse brain to plasma at 10 uM incubated for 5 hrs by equilibrium dialysis method; type: ADME, cell-free; settings: read-out: K(p,uu,brain)
# [48] = Permeability of the compound at 100 uM incubated for 4 hrs at pH 7.4 by PAMPA assay; type: ADME; settings: read-out: permeability
# [49] = target: Casein kinase I isoform alpha (Homo sapiens, UniProt P48729); assay: Inhibition of CK1A1 (unknown origin)
# Sequence of Casein kinase I isoform alpha (P48729 whole entry, canonical isoform): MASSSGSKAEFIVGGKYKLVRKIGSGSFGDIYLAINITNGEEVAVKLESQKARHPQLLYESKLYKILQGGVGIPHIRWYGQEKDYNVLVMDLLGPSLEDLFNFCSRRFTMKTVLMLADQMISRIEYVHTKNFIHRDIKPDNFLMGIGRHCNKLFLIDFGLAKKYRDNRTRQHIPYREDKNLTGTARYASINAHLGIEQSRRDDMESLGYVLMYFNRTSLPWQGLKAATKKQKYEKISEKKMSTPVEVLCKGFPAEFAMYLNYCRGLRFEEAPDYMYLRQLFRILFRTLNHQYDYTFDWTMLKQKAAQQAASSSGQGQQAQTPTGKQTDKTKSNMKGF
# [50] = target: Aurora kinase A (Mus musculus, UniProt P97477); assay: Inhibition of mouse Aurora kinase A
# [51] = target: Insulin-like growth factor 1 receptor (Homo sapiens, UniProt P08069); assay: Inhibition of IGF1R (unknown origin)
# [52] = tested on: Mus musculus; assay: Anti-alzheimer activity against LaFerla 3x transgenic Alzheimer's disease C57BL/6 mouse model assessed as reduction in tau phosphorylation at Ser396 residue in brain at 10 mg/kg, po measured after 5 hrs by ELISA; type: functional
# Sequence of MAP kinase-activated protein kinase 2 (P49137 whole entry, the tested form may be a part): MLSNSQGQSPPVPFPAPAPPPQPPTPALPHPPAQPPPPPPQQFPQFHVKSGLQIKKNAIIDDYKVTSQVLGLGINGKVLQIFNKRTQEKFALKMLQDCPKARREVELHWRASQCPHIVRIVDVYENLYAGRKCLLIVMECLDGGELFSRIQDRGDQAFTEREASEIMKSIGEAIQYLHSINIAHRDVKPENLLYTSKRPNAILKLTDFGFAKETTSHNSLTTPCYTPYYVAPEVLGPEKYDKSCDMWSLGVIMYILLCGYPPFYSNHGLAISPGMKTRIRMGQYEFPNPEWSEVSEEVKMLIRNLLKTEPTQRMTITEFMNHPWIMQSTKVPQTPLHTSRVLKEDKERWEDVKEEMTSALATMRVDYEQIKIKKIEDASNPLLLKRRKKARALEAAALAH
# Sequence of Mitogen-activated protein kinase 14 (Q16539 whole entry): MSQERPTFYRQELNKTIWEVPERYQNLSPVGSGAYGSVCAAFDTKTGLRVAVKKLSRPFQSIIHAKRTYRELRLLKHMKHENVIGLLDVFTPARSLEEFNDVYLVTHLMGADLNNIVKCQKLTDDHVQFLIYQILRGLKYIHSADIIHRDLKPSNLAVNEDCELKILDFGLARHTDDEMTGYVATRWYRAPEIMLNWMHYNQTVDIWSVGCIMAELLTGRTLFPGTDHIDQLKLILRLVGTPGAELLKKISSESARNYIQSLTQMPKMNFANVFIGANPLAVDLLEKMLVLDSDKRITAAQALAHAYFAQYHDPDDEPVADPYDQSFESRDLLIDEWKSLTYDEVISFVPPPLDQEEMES
compound,measurement,setting,value
O=C(Nc1cnccc1-c1ccc(F)cc1)c1ccnc(Nc2ccc(F)cc2)n1,IC50,[1],> 50 µM
same,IC50,[2],> 27 µM
same,IC50,[3],0.00056 µM
same,IC50,[4],0.00045 µM
same,IC50,[5],0.034 µM
same,"remaining at 10 min, 0.5 µM",[6],67%
same,"remaining at 10 min, 0.5 µM",[7],10%
same,"remaining at 10 min, 0.5 µM",[8],54%
same,IC50,[9],> 2 µM
same,IC50,[10],11 µM
same,IC50,[11],> 50 µM
same,IC50,[12],> 50 µM
same,IC50,[13],> 2 µM
same,IC50,[14],> 2 µM
same,IC50,[15],> 2 µM
same,IC50,[16],> 23 µM
same,IC50,[17],> 50 µM
same,IC50,[18],14 µM
same,IC50,[19],> 2 µM
same,IC50,[20],> 50 µM
same,IC50,[21],10.4 µM
same,IC50,[22],> 50 µM
same,IC50,[23],16 µM
same,IC50,[24],17 µM
same,IC50,[25],0.47 µM
same,IC50,[26],0.68 µM
same,IC50,[27],1.4 µM
same,"Papp at 4 h, 100 µM",[28],62 ×10⁻⁶ cm/s
same,"Papp A→B at 2 h, 3 µM",[29],11.8 ×10⁻⁶ cm/s
same,"Papp B→A at 2 h, 3 µM",[30],4.4 ×10⁻⁶ cm/s
same,"fraction unbound at 5 h, 10 µM",[31],0.002
same,"fraction unbound at 5 h, 10 µM",[32],0.007
same,"fraction unbound at 5 h, 10 µM",[33],0.008
same,"fraction unbound at 4 h, 1 µM",[34],0.003
same,solubility thermodynamic,[35],31 µg/mL
same,solubility thermodynamic,[36],1 µg/mL
same,clearance,[37],18.9 mL/min/kg
same,Vd,[38],2.6 L/kg
same,MRT,[39],2.3 h
same,half-life,[40],2.8 h
same,AUC,[41],11.7 µM·h
same,Cmax,[42],1500 nM
same,bioavailability,[43],53%
same,concentration at 5 h,[44],180 nM
same,concentration at 5 h,[45],180 nM
same,Kp at 5 h,[46],1
same,"Kp uu at 5 h, 10 µM",[47],0.4
same,"Papp at 4 h, 100 µM",[48],59 ×10⁻⁶ cm/s
same,IC50,[49],> 2 µM
same,IC50,[50],> 50 µM
N#Cc1ccc(Nc2nccc(C(=O)Nc3cnccc3-c3ccc(F)cc3)n2)cc1,IC50,[1],23 µM
same,IC50,[2],> 50 µM
same,IC50,[3],0.00035 µM
same,IC50,[4],0.00025 µM
same,IC50,[5],0.01 µM
same,"remaining at 10 min, 0.5 µM",[6],79%
same,"remaining at 10 min, 0.5 µM",[7],66%
same,"remaining at 10 min, 0.5 µM",[8],66%
same,IC50,[9],> 2 µM
same,IC50,[10],11 µM
same,IC50,[11],13 µM
same,IC50,[12],> 50 µM
same,IC50,[13],> 2 µM
same,IC50,[14],5.6 µM
same,IC50,[51],17 µM
same,IC50,[15],> 2 µM
same,IC50,[16],> 50 µM
same,IC50,[17],31 µM
same,IC50,[18],13 µM
same,IC50,[19],> 2 µM
same,IC50,[20],37 µM
same,IC50,[21],17 µM
same,IC50,[22],> 50 µM
same,IC50,[23],> 50 µM
same,IC50,[24],> 50 µM
same,IC50,[25],0.22 µM
same,IC50,[26],1.3 µM
same,IC50,[27],0.72 µM
same,"Papp at 4 h, 100 µM",[28],121 ×10⁻⁶ cm/s
same,"Papp A→B at 2 h, 3 µM",[29],24.4 ×10⁻⁶ cm/s
same,"Papp B→A at 2 h, 3 µM",[30],9.8 ×10⁻⁶ cm/s
same,"fraction unbound at 5 h, 10 µM",[31],0.011
same,"fraction unbound at 5 h, 10 µM",[32],0.019
same,"fraction unbound at 5 h, 10 µM",[33],0.03
same,"fraction unbound at 4 h, 1 µM",[34],0.012
same,solubility thermodynamic,[35],16 µg/mL
same,solubility thermodynamic,[36],< 1 µg/mL
same,clearance,[37],23.3 mL/min/kg
same,Vd,[38],5.4 L/kg
same,MRT,[39],3.9 h
same,half-life,[40],2.5 h
same,AUC,[41],24.3 µM·h
same,Cmax,[42],3500 nM
same,bioavailability,[43],100%
same,inhibition in vivo at 10 mg/kg,[52],33%
same,concentration at 5 h,[44],410 nM
same,concentration at 5 h,[45],370 nM
same,Kp at 5 h,[46],0.9
same,"Kp uu at 5 h, 10 µM",[47],0.4
same,"Papp at 4 h, 100 µM",[48],84 ×10⁻⁶ cm/s
same,IC50,[49],> 2 µM
same,IC50,[50],17 µM
